Measured values from patent US9828344B2, “Inhibitors of the notch signaling pathway and secretion for use in medicine” (Leibniz-Institut für Altersforschung Fritz-Lipmann-Institut …, priority 2012, dated 2017).

Key:
microtubuli or actin = assay: Microtubule and actin integrity in HeLa cells; type: cell-based; conditions: 4 h
ER = ER tubule-to-sheet live-cell imaging in COS cells (prlss-KDEL-mRFP); type: cell-based
Description: FIG. 7: FLI-06 induces ER sheet formation. A) COS cells transfected with prlss-KDEL-mRFP were incubated with 10 μM FLI-06 for indicated times and imaged by live-cell microscopy. The inserts are magnifications of the boxed areas. B) Images from cells treated as in A) were scored for the percentage of cells that lost most of their ER-tubules. For each time point 40-60 cells were counted. Data represent mean percentages, error bars SEM, n=3 independent experiments.
FIG. 16: Only ER exit inhibitors convert ER tubules to sheets. COS cells plated on LabTek chambered coverslips were transiently transfected with the ER-marker prlss-KDEL-mRFP, incubated the next day for 2 h with 10 iM of indicated compounds and imaged by live-cell microscopy. […] FLI-06+CHX, cells were additionally incubated in 40 iM cycloheximide. Nife, nifedipine; nimo, nimodipine. Numbers refer to numbering in FIG. 5a.
We noted a morphological change of the ER upon FLI-06 incubation that was difficult to capture in fixed cells. Live-cell imaging was therefore performed in COS cells transfected with the ER marker prlss-KDEL-mRFP (supp. Ref 3) and FLI-06 was added for 120 min (FIG. 7a). After 120 min almost all cells had no detectable ER-tubules anymore and instead were filled with large sheet-like structures. […] To test whether the morphological change is related to the inhibition of ER exit, next our set of FLI-06 derivatives was tested. […] Rather, the ER-sheets are indicative for structural changes, maybe initiated within ERES, that inhibit ER exit.

NotchΔE-EGFP = assay: cells; type: cell-based
Description: To identify novel regulatory factors involved in Notch trafficking/processing an image-based high content screen was set up. […] NotchΔE-EGFP is a direct substrate for γ-secretase at the PM, and under physiological conditions is proteolytically processed to NICD-EGFP that translocates into the nucleus (for scheme see FIG. 1b), resulting in a strong nuclear EGFP-staining in steady state^15 (FIG. 1d). […] Importantly, changes in subcellular localization of the reporter are amenable to quantitation by automated microscopy^15. Accordingly, reporter fluorescence was determined in the nucleus (nuc) and in a ring around the nucleus (enuc), and the ratio enuc/nuc was evaluated (schematized in FIG. 1c). Thereafter, the assay design was functionally validated. […] The assay also reliably detected trafficking defects in the secretory pathway. […] Taken together, the assay was validated for reliably detecting concentration and time dependent changes in trafficking and processing of the Notch reporter.
Cells were seeded in 96-well plates at a density of 5000 cells/well in 100 μl medium. The next day, 100 μl medium containing the respective test compounds was added. Cells were incubated for 16 h, fixed and processed for automated microscopy. For the putative gamma-secretase inhibitors the enuc intensity was divided by the DAPT control and for the trafficking inhibitors normalized percentage inhibition against DAPT/DMSO controls of log 2 transformed nuc/enuc ratios were calculated. Relative activity values were read into “R” (http://www.r-project.org/) and EC50 estimates were calculated using four-parameter log-logistic fit with the package “drc”^51.
Images were acquired on an ArrayScan VTi automated microscope (ThermoFisher) and numerical data were extracted with the Compartmental Analysis BioApplication of the bundled software suite. Compound screening raw data were collected at the FMP and data transformation was performed according to standard procedures (ref 17 and supp. Refs 6-7).

COPII vesicles = assay: In vitro COPII budding assay with permeabilized cells; type: biochemical; conditions: for budding of COPII vesicles after pretreatment of cells: cells pretreated with FLI-06 for 4 hours
VSVG-EGFP = type: cell-based
DND-41 cells = assay: Growth of DND-41 cells (FACS); type: cell-based
Description: (§1) FIG. 18: FLI-06 inhibits secretion of secreted alkaline phosphates; FLI-06 kills cancerous, Notch dependent T-cells. a) The secreted alkaline phosphatase (SEAP) assay was carried out. Medium was collected and SEAP secretion was measured via photometry. […] The cells were grown in suspension with the indicated amounts of FLI-06 or DMSO control and growth was determined via FACS analysis.
To test whether FLI-06 would ultimately be useful to treat cancerous diseases we incubated DND-41 cells having a Notch heterodimerization domain that leads to hyperactive Notch signaling (Weng et al, Science, 2004) with FLI-06.

YFP-GPI = assay: Surface transport of YFP-GPI in HeLa cells; type: cell-based; conditions: 18 h; 1 ig/ml BFA or 10 iM FLI-06
SEAP = assay: Secreted alkaline phosphatase (SEAP) assay in HeLa cells; type: cell-based; conditions: medium measured via photometry
Description: as §1
In order to confirm the inhibitory effect of FLI-06 on secretion we transfected HeLa cells with a plasmid encoding a secreted alkaline phosphatase (SEAP).

endocytosis = assay: Transferrin uptake assay; type: cell-based
Description: FIG. 13: FLI-06 causes dispersal of early Golgi and TGN, but no tubulation of endosomes. Hela cells were incubated with DMSO or 10 iM FLI-06 or 1 ig/ml BFA for 18 h, fixed, stained with antibodies as indicated and imaged by fluorescence microscopy. Endosomes were visualized by adding Alexa555-labelled transferrin on ice and chasing for 15 min at 37° C. in the presence of indicated compounds. Arrows indicated tubulating endosomes, scalebar 10 im.
For the transferrin uptake assay cells were starved in serum free medium for 1 h at 37° C. Cells were then transferred on ice and medium was exchanged to serum free medium supplemented with 25 μg/ml AlexaFluor555-Transferrin conjugate (Molecular Probes) and test compounds. After 15 min on ice cells were incubated with pre-warmed serum-supplemented medium containing test compounds and incubated at 37° C.

GBF1 = biological target: T1, GBF1 (Homo sapiens, UniProt Q92538); assay: GBF1-GFP distribution in transfected HeLa cells; type: cell-based; conditions: FLI-06 10 μM, BFA 10 μg/ml, GCA 10 μM, 10 h
T1 construct: expressed in transfected cells; host or cells: HeLa (transient)
T1 sequence (Q92538 whole entry, species assumed): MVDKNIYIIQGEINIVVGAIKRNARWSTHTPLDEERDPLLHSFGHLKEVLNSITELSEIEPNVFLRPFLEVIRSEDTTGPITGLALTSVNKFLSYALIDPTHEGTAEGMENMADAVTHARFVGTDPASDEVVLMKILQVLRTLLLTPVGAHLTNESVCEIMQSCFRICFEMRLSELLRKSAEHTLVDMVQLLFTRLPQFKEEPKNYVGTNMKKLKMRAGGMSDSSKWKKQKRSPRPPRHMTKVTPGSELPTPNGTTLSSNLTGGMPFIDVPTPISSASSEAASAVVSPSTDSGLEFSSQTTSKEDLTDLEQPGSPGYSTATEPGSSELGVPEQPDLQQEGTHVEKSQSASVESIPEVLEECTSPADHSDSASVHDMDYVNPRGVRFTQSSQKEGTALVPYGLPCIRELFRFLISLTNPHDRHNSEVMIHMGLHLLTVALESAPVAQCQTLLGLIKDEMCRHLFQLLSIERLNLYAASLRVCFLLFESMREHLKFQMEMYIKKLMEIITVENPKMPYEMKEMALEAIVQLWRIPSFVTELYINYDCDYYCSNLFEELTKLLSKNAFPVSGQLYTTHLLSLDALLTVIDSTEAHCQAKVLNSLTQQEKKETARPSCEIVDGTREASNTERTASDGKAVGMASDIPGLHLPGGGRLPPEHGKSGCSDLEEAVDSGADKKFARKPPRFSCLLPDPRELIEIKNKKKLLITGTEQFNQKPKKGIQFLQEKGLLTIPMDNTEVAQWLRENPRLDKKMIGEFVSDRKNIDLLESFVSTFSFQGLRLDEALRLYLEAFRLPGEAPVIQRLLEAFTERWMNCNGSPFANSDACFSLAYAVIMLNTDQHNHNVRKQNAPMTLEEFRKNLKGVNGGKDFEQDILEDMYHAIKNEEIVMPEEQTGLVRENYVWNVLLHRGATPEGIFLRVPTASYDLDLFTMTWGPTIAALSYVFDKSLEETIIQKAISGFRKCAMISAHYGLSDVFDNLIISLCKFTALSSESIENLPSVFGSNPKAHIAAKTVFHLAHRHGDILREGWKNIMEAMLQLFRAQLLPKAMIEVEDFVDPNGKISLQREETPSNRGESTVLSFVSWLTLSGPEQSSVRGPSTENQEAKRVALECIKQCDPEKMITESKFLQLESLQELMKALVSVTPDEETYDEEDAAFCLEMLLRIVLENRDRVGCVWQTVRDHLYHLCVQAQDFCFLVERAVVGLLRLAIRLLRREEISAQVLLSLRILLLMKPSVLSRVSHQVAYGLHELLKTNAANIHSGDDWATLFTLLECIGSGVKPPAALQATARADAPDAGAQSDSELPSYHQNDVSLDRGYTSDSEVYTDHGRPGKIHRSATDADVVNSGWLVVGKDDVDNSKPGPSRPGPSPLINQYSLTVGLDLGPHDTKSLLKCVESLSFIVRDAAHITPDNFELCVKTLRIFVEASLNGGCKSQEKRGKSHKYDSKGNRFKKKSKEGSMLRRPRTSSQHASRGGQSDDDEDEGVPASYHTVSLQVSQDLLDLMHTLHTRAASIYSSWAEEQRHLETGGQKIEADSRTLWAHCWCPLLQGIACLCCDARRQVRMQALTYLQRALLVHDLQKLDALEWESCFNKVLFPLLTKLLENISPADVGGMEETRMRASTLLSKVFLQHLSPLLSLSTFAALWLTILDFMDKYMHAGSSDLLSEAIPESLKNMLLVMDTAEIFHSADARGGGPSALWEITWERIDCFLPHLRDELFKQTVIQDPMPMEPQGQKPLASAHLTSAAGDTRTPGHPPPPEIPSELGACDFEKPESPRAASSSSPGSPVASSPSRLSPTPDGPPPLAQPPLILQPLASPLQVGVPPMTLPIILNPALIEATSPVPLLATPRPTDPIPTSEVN

BIP and ATF6 = conditions: human, 24 h
KlothoS = assay: Secretion of KlothoS from transfected HeLa cells; type: cell-based; conditions: 18 h
Description: Thereafter cells were fixed and analyzed by immunofluorescence microscopy. […] After incubating with compounds for 18 h media were collected, cells lysed and both analyzed by Western Blotting using Klotho antibody. As loading control membranes were probed for actin. […] […] Tunicamycin (Tun) and 5 mM DTT were used as positive controls. […] Shown is the average of three independent experiments, error bars indicate standard deviation.

Structure (SMILES): CC1=C(C(=O)OC2CCCCC2)C(c2ccc([N+](=O)[O-])cc2)C2=C(CC(C)(C)CC2=O)N1 (centres unmarked) [FLI-06, Cyclohexyl 4-(4′-nitrophenyl)-2,7,7-trimethyl-5-oxo-1,4,5,6,7,8-hexahydroquinoline-3-carboxylate]
- microtubule network (microtubuli or actin; 1.5 ig/ml nocodazole or 10 iM FLI-06): does not act on the cytoskeleton
- actin polymerization and distribution (microtubuli or actin; 2 iM cytochalasin D or 10 iM FLI-06): unaffected
- start of ER sheet-formation (ER; 10 μM FLI-06): 5 to 10 min
- t1/2 of ER sheet-formation (ER; 10 μM FLI-06): about 14 min
- ER tubule-to-sheets phenotype (ER; 10 iM, 2 h): elicited the tubule-to-sheets phenotype
- activity in NotchΔE-EGFP cells (enuc/nuc ratios) (NotchΔE-EGFP; SAR and prior-art comparison, FIG. 5a/5b): equally active as the initial screening hit
- EC50 (NotchΔE-EGFP; assay not given, read-out: EC50 as secretion inhibitor): 2300 nM
- budding of COPII vesicles after pretreatment of cells (COPII vesicles; 100 μM FLI-06 in reaction): strongly
- budding of COPII vesicles after pretreatment of cells (COPII vesicles; no FLI-06 in reaction): slightly inhibited
- COPII budding reaction, compound added directly to the assay (COPII vesicles; no FLI-06 pretreatment of cells): did not inhibit the COPII budding reaction
- recruitment of VSVG-EGFP to ERES (VSVG-EGFP): strongly reduced
- velocity of action on ER export (VSVG-EGFP): acts instantaneously on ER export
- effect on DND-41 cells (DND-41 cells; 1 μM): inhibited proliferation
- effect on DND-41 cells (DND-41 cells; 10 μM): total cell death after 4 days
- surface transport of YFP-GPI (YFP-GPI): inhibit surface transport of YFP-GPI
- secretion of SEAP (SEAP): inhibition of secretion of SEAP
- endocytosis of transferrin (endocytosis): did not affect endocytosis
- distribution of GBF1-GFP (GBF1): displayed the distribution of control cells
- ER-stress (BIP up-regulation, ATF6 luciferase) (BIP and ATF6): only very mild ER-stress after 24 h
- secretion of KlothoS (KlothoS): inhibit secretion of KlothoS
